Consider 53 compounds from patent publication US8476197B2, “Aminopropenoates as fungicides” (priority 2009, dated 2013).

The structures appear in SMILES notation. Marks after values point to notes of the source that are not given here.

For one series the following is noted: pH 2.3.
The Log P is a log measure of how a compound divides between an organic and an aqueous phase. Read a high Log P as higher lipophilicity. Consider `CCOC(=O)C(C#N)=C(NC(C)C(C)C)c1cccnc1C(C)=O` (stereo not shown) [Compound 980], for which the “Log P” value was determined as 3.11.
The same measure, in the same setting: to `COC(=O)C(C#N)=C(Nc1ccccc1OC)c1cccnc1Cl` [Compound 335] belongs 2.58.

Staying with this series, now noted: pH 2.7.
Take `CCOC(=O)C(C#N)=C(NC(C)c1ccccc1)c1sccc1Br` (mixture of isomers) [Compound 448]: the “Log P” value was 4.09^[a].
As to `CCOC(=O)C(C#N)=C(NC(C)C(C)C)c1cn(C)nc1C(C)C` (stereo not shown) [Compound 1208], the log partition coefficient (Log P) was 3.46^[a].
In the case of `CCOC(=O)C(C#N)=C(NC1CCC1)c1cc(Cl)sc1Cl` [Compound 1581], the “Log P” value is 4.26^[a].
For `CCOC(=O)C(C#N)=C(NC(C)c1nccs1)c1cn(C)nc1C(F)F` (stereo not shown) [Compound 326], the “Log P” value is 2.44^[a].
Consider `CCOC(=O)C(C#N)=C(NC(C)C(N)=O)c1sccc1C(F)(F)F` (stereo not shown) [Compound 610], for which the “Log P” value is 2.07^[a].
Still for that read-out and setting: to `CCOC(=O)C(C#N)=C(NC1CC1C(C)C)c1cccnc1Cl` (stereo not shown) [Compound 1635] belongs 3.53^[a].
In the case of `CC(C)C(C)NC(=C(C#N)C(=O)NCCF)c1cccnc1Cl` (stereo not shown) [Compound 1593], the “Log P” value is 2.76^[a].
With `CCCCCNC(=C(C#N)C(=O)OCC)c1cccnc1Cl` [Compound 1175], the “Log P” value was 3.53^[a].
With `CCOC(=O)C(C#N)=C(NC(C)Cc1c[nH]c2ccccc12)c1cn(C)nc1C(F)F` (racemic) [Compound 35], the lipophilicity (Log P) was 3.25^[a].
For the compound `CCOC(=O)C(C#N)=C(NC(C)CC)c1cccnc1Cl` (stereo not shown) [Compound 1174], the “Log P” value is 3^[a].
Same read-out and setting: to `CCOC(=O)C(C#N)=C(NC(C)c1ccccn1)c1scnc1Cl` (stereo not shown) [Compound 1462] belongs 2.59^[a]; to `C=CC(COCc1ccccc1)NC(=C(C#N)C(=O)OC)c1sc(C)nc1C(F)(F)F` (stereo not shown) [Compound 690], 3.89^[a]; to `CCOC(=O)C(C#N)=C(NC(C)c1ccccn1)c1c(C(F)(F)F)nn(C)c1F` (mixture of isomers) [Compound 310], 3.12^[a].
As to `COC(=O)C(C#N)=C(NC(C)CC(F)(F)F)c1cccnc1Cl` (stereo not shown) [Compound 757], the “Log P” value is 2.34^[a].
For `CCOC(=O)C(C#N)=C(NC(C)C(N)=O)c1cn(C)nc1C(F)F` (racemic) [Compound 590], the “Log P” value was 1.5^[a].
Still for that read-out and setting: in the case of `CCOC(=O)C(C#N)=C(Nc1ccccc1SC)c1cc(Cl)sc1Cl` [Compound 500] it was 4.59^[a]; in that of `CCOC(=O)C(C#N)=C(NC(C)CC)c1sc(C)nc1C(F)(F)F` (stereo not shown) [Compound 835], 3.59^[a]; in that of `CCOC(=O)C(C#N)=C(NC(C)c1ccccn1)c1sccc1Br` (stereo not shown) [Compound 100], 3.1^[a].
On the same count and under the same terms, to `CCOC(=O)C(C#N)=C(NC(C)c1csc(-c2ccccc2)n1)c1cccnc1Cl` (stereo not shown) [Compound 1447] belongs 4^[a].
Still for that read-out and setting: in the case of `CCCC(CO)NC(=C(C#N)C(=O)OCC)c1cn(C)nc1C(F)F` (stereo not shown) [Compound 1335] it was 2.28^[a]; in that of `CCOC(=O)C(C#N)=C(NC(C)COC)c1ccsc1Br` (stereo not shown) [Compound 714], 3.21^[a].
Take `CCOC(=O)C(C#N)=C(NC(C)c1ccccn1)c1cn(C)nc1C(C)C` (stereo not shown) [Compound 1207]: the “Log P” value was 2.58^[a].
On to `CCOC(=O)C(C#N)=C(Nc1cccc2scnc12)c1cccnc1Cl` [Compound 1553], for which the lipophilicity (Log P) is 2.61^[a].
With `CCOC(=O)C(C#N)=C(NC(C)COc1c(C)cccc1C)c1sc(C)nc1C(F)(F)F` (racemic) [Compound 677], the “Log P” value is 4.7^[a].
As to `CCOC(=O)C(C#N)=C(NC(C)C(=O)OC)c1sc(C)nc1C(F)(F)F` (stereo not shown) [Compound 680], the “Log P” value is 2.94^[a].
Same read-out and setting: to `CC#CC(C)NC(=C(C#N)C(=O)OCC)c1ccnc(Cl)c1F` (stereo not shown) [Compound 1325] belongs 3.39^[a]; to `CCOC(=O)C(C#N)=C(NC(C)c1cccc(Cl)c1)c1cccnc1Cl` (stereo not shown) [Compound 1152], 3.83^[a].
Take `C=CCCCC(C=C)NC(=C(C#N)C(=O)OCC)c1cccnc1Cl` (stereo not shown) [Compound 1176]: the “Log P” value is 4.01^[a].
Still for that read-out and setting: in the case of `CCOC(=O)C(C#N)=C(NC(c1cc2ccccc2s1)C(F)(F)F)c1sccc1Br` (racemic) [Compound 129] it was 4.9^[a].
Take `CCOC(=O)C(C#N)=C(NC(C)C1CC2CCC1C2)c1cccnc1Cl` (stereo not shown) [Compound 1177]: the “Log P” value is 4.39^[a].
Same read-out and setting: to `COCCNC(=O)C(C#N)=C(NC(C)c1nccs1)c1cccnc1Cl` (stereo not shown) [Compound 327] belongs 1.93^[a].
Take `COC(=O)C(C#N)=C(NC(C)c1ccccn1)c1sc(C)nc1C(F)(F)F` (racemic) [Compound 135]: the log partition coefficient (Log P) was 2.77^[a].
In the case of `CCOC(=O)C(C#N)=C(NCc1ccc(F)cn1)c1sc(C)nc1C(F)(F)F` [Compound 204], the “Log P” value is 2.98^[a].
The same measure, in the same setting: in the case of `CCOC(=O)C(C#N)=C(Nc1ccccc1SC)c1ccsc1I` [Compound 436] it was 3.94^[a]; in that of `CCOC(=O)C(C#N)=C(NC(C)CON=C(C)c1ccccc1)c1cccnc1Cl` (stereo not shown) [Compound 1111], 3.96^[a].
Same read-out and setting: to `CCCC(COCC)NC(=C(C#N)C(=O)OCC)c1cn(C)nc1C(F)F` (stereo not shown) [Compound 1354] belongs 3.44^[a]; to `C#CC(C)(C)NC(=C(C#N)C(=O)OCC)c1sccc1Br` [Compound 1027], 3.42^[a]; to `C=Cc1nn(C)cc1C(NC(C)c1nccs1)=C(C#N)C(=O)OCC` (racemic) [Compound 238], 2.3^[a].
Turning to `CCOC(=O)C(C#N)=C(NC(C)c1ccccn1)c1cccnc1Cl` (mixture of isomers) [Compound 292], the “Log P” value is 2.5^[a].
Same read-out and setting: to `CCOC(=O)C(C#N)=C(NC(C)c1c(F)cccc1F)c1cccnc1Cl` (stereo not shown) [Compound 1535] belongs 3.27^[a].

Still in this series, the particulars now being: pH 7.5.
As to `CCOC(=O)C(C#N)=C(NC(C)c1nccs1)c1ccc(Cl)nc1Cl` (stereo not shown) [Compound 72], the “Log P” value was 3.01.
On the same count and under the same terms, in the case of `CCOC(=O)C(C#N)=C(NC(C)C(C)C)c1cccnc1C(C)=O` (stereo not shown) [Compound 980] it was 3.08; in that of `CC(NC(=C(C#N)C(=O)OC1CCC1)c1cccnc1Cl)c1nccs1` (racemic) [Compound 268], 2.88; in that of `CCOC(=O)C(C#N)=C(NC(C)Cn1cncn1)c1cccnc1Cl` (stereo not shown) [Compound 84], 1.59.
On to `CCOC(=O)C(C#N)=C(NC(C)c1nc(C(=O)N(C)C)cs1)c1cccnc1Cl` (mixture of isomers) [Compound 304], for which the “Log P” value came out at 2.08.
The same measure, in the same setting: in the case of `CCOC(=O)C(C#N)=C(NC(C)C1CC1)c1ccc(C)nc1Cl` (stereo not shown) [Compound 881] it was 3.32; in that of `CCOC(=O)C(C#N)=C(NC(C)C1CC1)c1cccnc1Cl` (mixture of isomers) [Compound 913], 2.9; in that of `CCOC(=O)C(C#N)=C(NC1CCOC1=O)c1cccnc1Cl` (racemic) [Compound 231], 1.77.
On to `COC(=O)C(C#N)=C(Nc1ccccc1OC)c1cccnc1Cl` [Compound 335], for which the lipophilicity (Log P) was determined as 2.56.
Consider `CCOC(=O)C(C#N)=C(NC(C)C(F)(F)F)c1cccnc1Cl` (mixture of isomers) [Compound 806], for which the “Log P” value is reported as 2.9.
The same measure, in the same setting: to `COC(=O)C(C#N)=C(N[C@@H](C)C1CCCCC1)c1cccnc1Cl` [Compound 870] belongs 3.76; to `CCOC(=O)C(C#N)=C(NC(C)c1ncc(Br)s1)c1cccnc1Cl` (racemic) [Compound 128], 3.32.
On to `CCOC(=O)C(C#N)=C(NC(C)c1ccc(Cl)cc1)c1cccnc1Cl` (stereo not shown) [Compound 345], for which the “Log P” value stood at 3.63.
